In this assay the test system is ΔG/SEAP/HCV E1E2. Briefly: Effect of test substance on cell infection with HCV pseudotype virus (SEAP reporter assay in HepG2 cells). To be noted: Hepatitis C virus. It is filed as cell-based. On the technique in general: A reporter such as luciferase makes a cellular process visible.

A word on the IC50: it is the concentration that gives 50% inhibition. Read a low IC50 as higher potency. In turn, `COc1cc(OC)cc(-c2nn(-c3cc(N4CC[C@H](O)C4)ccc3N(C)C)c(=O)c3c2CCC3)c1` [Example 1-6, 4-(3,5-dimethoxy-phenyl)-2-[2-dimethylamino-5-((S)-3-hydroxy-pyrrolidin-1-yl)-phenyl]-2,5,6,7-tetrahydro-cyclopenta[d]pyridazin-1-one] displayed a concentration for half-maximal inhibition (IC50) of 100 to 10000 nM.

`Cc1cc(-c2nn(-c3cc(N4CC(CO)C4)ccc3C(F)(F)F)c(=O)c3c2CCN3CCO)ccc1F` [Example 1-23, 4-(4-fluoro-3-methyl-phenyl)-1-(2-hydroxy-ethyl)-6-[5-(3-hydroxymethyl-azetidin-1-yl)-2-trifluoromethylphenyl]-1,2,3,6-tetrahydro-pyrrolo[2,3-d]pyridazin-7-one] registered a 50% inhibitory concentration (IC50) of under 100 nM.

Regarding `O=c1c2c(c(-c3ccccc3)nn1-c1cc(N3CC[C@H](O)C3)ccc1C(F)(F)F)CCC2` [Example 66, 2-[5-((S)-3-hydroxy-pyrrolidin-1-yl)-2-trifluoromethyl-phenyl]-4-phenyl-2,5,6,7-tetrahydro-cyclopenta[d]pyridazin-1-one], the IC50 is under 100 nM.

On to `O=c1c2c(c(C3=CCCC3)nn1-c1cc(N3CC[C@H](O)C3)ccc1C(F)(F)F)CCC2` [Example 1-18, 4-(cyclopent-1-enyl)-2-[5-((S)-3-hydroxy-pyrrolidin-1-yl)-2-trifluoromethyl-phenyl]-2,5,6,7-tetrahydro-cyclopenta[d]pyridazin-1-one], for which the half-maximal inhibitory concentration (IC50) lay within 100 to 10000 nM.

As to `COc1cc(OC)cc(-c2nn(-c3cc(N4CC[C@H](O)C4)ccc3C(F)(F)F)c(=O)c3c2CCN3CCO)c1` [Example 29, 4-(3,5-dimethoxy-phenyl)-1-(2-hydroxy-ethyl)-6-[5-((S)-3-hydroxy-pyrrolidin-1-yl)-2-trifluoromethylphenyl]-1,2,3,6-tetrahydro-pyrrolo[2,3-d]pyridazin-7-one], the concentration for half-maximal inhibition (IC50) was under 100 nM.

`COc1cc(OC)cc(-c2nn(-c3cc(OCCO)ccc3C(F)(F)F)c(=O)c3c2CCC3)c1` [Example 63, 4-(3,5-dimethoxy-phenyl)-2-[5-(2-hydroxy-ethoxy)-2-trifluoromethyl-phenyl]-2,5,6,7-tetrahydro-cyclopenta[d]pyridazin-1-one] had an IC50 of under 100 nM.

For `COc1cc(OC)cc(-c2nn(-c3cc(N(C)C)ccc3C(F)(F)F)c(=O)c3c2CCC3)c1` [Example 81, 4-(3,5-dimethoxy-phenyl)-2-(5-dimethylamino-2-trifluoromethyl-phenyl)-2,5,6,7-tetrahydro-cyclopenta[d]pyridazin-1-one], the concentration for half-maximal inhibition (IC50) was under 100 nM.

Regarding `COc1cc(OC)cc(-c2nn(-c3cc(Nc4ccccc4)ccc3C(F)(F)F)c(=O)c3c2CCC3)c1` [Example 134, 4-(3,5-dimethoxy-phenyl)-2-(5-phenylamino-2-trifluoromethyl-phenyl)-2,5,6,7-tetrahydro-cyclopenta[d]pyridazin-1-one], the 50% inhibitory concentration (IC50) was in the range of 100 to 10000 nM.

As to `Cc1cc(C)cc(-c2nn(-c3cc(-c4cccnn4)ccc3C(F)(F)F)c(=O)c3c2CC(C)N3)c1` (stereo not shown) [Example 12, 4-(3,5-dimethyl-phenyl)-2-methyl-6-(5-pyridazin-3-yl-2-trifluoromethyl-phenyl)-1,2,3,6-tetrahydro-pyrrolo[2,3-d]pyridazin-7-one], the IC50 is under 100 nM.

The molecule `CCCC(=O)Nc1ccc(C(F)(F)F)c(-n2nc(-c3cc(OC)cc(OC)c3)c3c(c2=O)CCC3)c1` [Example 84, N-{3-[4-(3,5-dimethoxy-phenyl)-1-oxo-1,5,6,7-tetrahydro-cyclopenta[d]pyridazin-2-yl]-4-trifluoromethyl-phenyl}-butyramide] gave an IC50 of under 100 nM.

In turn, `CCCN(C)c1ccc(C(F)(F)F)c(-n2nc(-c3cc(OC)cc(OC)c3)c3c(c2=O)CCC3)c1` [Example 101, 4-(3,5-dimethoxy-phenyl)-2-[5-(methyl-propylamino)-2-trifluoromethyl-phenyl]-2,5,6,7-tetrahydro-cyclopenta[d]pyridazin-1-one] displayed a half-maximal inhibitory concentration (IC50) of 100 to 10000 nM.

`Cc1cc(C)cc(-c2nn(-c3cc(-c4cccnn4)ccc3C(F)(F)F)c(=O)c3c2CCC3)c1` [Example 8, 4-(3,5-dimethyl-phenyl)-2-(5-pyridazin-3-yl-2-trifluoromethyl-phenyl)-2,5,6,7-tetrahydro-cyclopenta[d]pyridazin-1-one] came in with a concentration for half-maximal inhibition (IC50) of under 100 nM.

Molecule `COC(=O)CCNc1ccc(C(F)(F)F)c(-n2nc(-c3cc(OC)cc(OC)c3)c3c(c2=O)NCC3)c1` [Example 47, 3-{3-[4-(3,5-dimethoxy-phenyl)-7-oxo-1,2,3,7-tetrahydro-pyrrolo[2,3-d]pyridazin-6-yl]-4-trifluoromethyl-phenylamino}-propionic acid methyl ester] came in with an IC50 of under 100 nM.

Molecule `COc1cc(OC)cc(-c2nn(-c3cc(NCCCC(N)=O)ccc3C(F)(F)F)c(=O)c3c2CCC3)c1` [Example 152, 4-{3-[4-(3,5-dimethoxy-phenyl)-1-oxo-1,5,6,7-tetrahydro-cyclopenta[d]pyridazin-2-yl]-4-trifluoromethyl-phenylamino}-butyramide] displayed an IC50 of under 100 nM.

`COc1cc(C)cc(-c2nn(-c3cc(N4CC[C@@H](O)C4)ccc3C(F)(F)F)c(=O)c3c2CCN3)c1` [Example 22, 6-[5-((R)-3-hydroxy-pyrrolidin-1-yl)-2-trifluoromethyl-phenyl]-4-(3-methoxy-5-methyl-phenyl)-1,2,3,6-tetrahydro-pyrrolo[2,3-d]pyridazin-7-one]: the IC50 is under 100 nM.

The molecule `COc1cc(OC)cc(-c2nn(-c3ccc(N(C)C)cc3C(F)(F)F)c(=O)c3c2CCC3)c1` [Example 108, 4-(3,5-dimethoxy-phenyl)-2-(4-dimethylamino-2-trifluoromethyl-phenyl)-2,5,6,7-tetrahydro-cyclopenta[d]pyridazin-1-one] yielded an IC50 of 100 to 10000 nM.

`COc1cc(OC)cc(-c2nn(-c3cc(NCC(CO)CO)ccc3C(F)(F)F)c(=O)c3c2CCN3CCO)c1` [Example 1-43, 4-(3,5-dimethoxy-phenyl)-1-(2-hydroxy-ethyl)-6-[5-(3-hydroxy-2-hydroxymethyl-propylamino)-2-trifluoromethyl-phenyl]-1,2,3,6-tetrahydro-pyrrolo[2,3-d]pyridazin-7-one] gave a half-maximal inhibitory concentration (IC50) of under 100 nM.

For the molecule `COc1cc(OC)cc(-c2nn(-c3cc(NCC4CCCC4)ccc3C(F)(F)F)c(=O)c3c2CCC3)c1` [Example 148, 2-[5-(cyclopentylmethyl-amino)-2-trifluoromethylphenyl]-4-(3,5-dimethoxy-phenyl)-2,5,6,7-tetrahydro-cyclopenta[d]pyridazin-1-one], the IC50 fell in the range of 100 to 10000 nM.

`CNc1ccc(C(F)(F)F)c(-n2nc(-c3cc(OC)cc(OC)c3)c3c(c2=O)CCC3)c1` [Example 82, 4-(3,5-dimethoxy-phenyl)-2-(5-methylamino-2-trifluoromethyl-phenyl)-2,5,6,7-tetrahydro-cyclopenta[d]pyridazin-1-one]: the 50% inhibitory concentration (IC50) is under 100 nM.

For `COc1cc(OC)cc(-c2nn(-c3cc(CO)ccc3C(F)(F)F)c(=O)c3c2CCC3)c1` [Example 149, 4-(3,5-dimethoxy-phenyl)-2-(5-hydroxymethyl-2-trifluoromethyl-phenyl)-2,5,6,7-tetrahydro-cyclopenta[d]pyridazin-1-one], the half-maximal inhibitory concentration (IC50) was under 100 nM.

Regarding `COc1cncc(-c2nn(-c3cc(N4CC[C@H](O)C4)ccc3C(F)(F)F)c(=O)c3c2CCN3C(N)=O)c1` [Example 1-29, 6-[5-((S)-3-hydroxy-pyrrolidin-1-yl)-2-trifluoromethylphenyl]-4-(5-methoxy-pyridin-3-yl)-7-oxo-2,3,6,7-tetrahydro-pyrrolo[2,3-d]pyridazine-1-carboxamide], the IC50 was under 100 nM.

Consider `COc1cc(OC)cc(-c2nn(-c3cc(NC4CCCC4)ccc3C(F)(F)F)c(=O)c3c2CCC3)c1` [Example 146, 2-(5-cyclopentylamino-2-trifluoromethyl-phenyl)-4-(3,5-dimethoxy-phenyl)-2,5,6,7-tetrahydro-cyclopenta[d]pyridazin-1-one], for which the IC50 was under 100 nM.

Regarding `COc1cc(OC)cc(-c2nn(-c3cc(N4CC(CO)C4)ccc3C(F)(F)F)c(=O)c3c2CCCN3CCO)c1` [Example 1-40, 5-(3,5-dimethoxy-phenyl)-1-(2-hydroxy-ethyl)-7-[5-(3-hydroxymethyl-azetidin-1-yl)-2-trifluoromethylphenyl]-1,3,4,7-tetrahydro-2H-pyrido[2,3-d]pyridazin-8-one], the IC50 is under 100 nM.

`COc1cc(OC)cc(-c2nn(-c3cc(NCCC4CC4)ccc3C(F)(F)F)c(=O)c3c2CCC3)c1` [Example 147, 2-[5-(2-cyclopropyl-ethylamino)-2-trifluoromethyl-phenyl]-4-(3,5-dimethoxy-phenyl)-2,5,6,7-tetrahydro-cyclopenta[d]pyridazin-1-one] displayed a 50% inhibitory concentration (IC50) of under 100 nM.

On to `COc1cc(OC)cc(-c2nn(-c3cc(N4CC[C@H](O)C4)ccc3C(F)(F)F)c(=O)c3c2CCN3C)c1` [Example 54, 4-(3,5-dimethoxy-phenyl)-6-[5-((S)-3-hydroxy-pyrrolidin-1-yl)-2-trifluoromethyl-phenyl]-1-methyl-1,2,3,6-tetrahydro-pyrrolo[2,3-d]pyridazin-7-one], for which the IC50 is under 100 nM.

Regarding `O=c1c2c(c(-c3ccncc3)nn1-c1cc(N3CC[C@H](O)C3)ccc1C(F)(F)F)CCC2` [Example 95, 2-[5-((S)-3-hydroxy-pyrrolidin-1-yl)-2-trifluoromethyl-phenyl]-4-pyridin-4-yl-2,5,6,7-tetrahydro-cyclopenta[d]pyridazin-1-one], the half-maximal inhibitory concentration (IC50) is 100 to 10000 nM.

`CCCCNC(=O)CN1CCc2c(-c3cc(OC)cc(OC)c3)nn(-c3cc(N4CC[C@H](O)C4)ccc3C(F)(F)F)c(=O)c21` [Example 34, N-butyl-2-{4-(3,5-dimethoxy-phenyl)-6-[5-((S)-3-hydroxy-pyrrolidin-1-yl)-2-trifluoromethyl-phenyl]-7-oxo-2,3,6,7-tetrahydro-pyrrolo[2,3-d]pyridazin-1-yl}-acetamide]: the IC50 is under 100 nM.

On to `COc1cc(OC)cc(-c2nn(-c3cc(C)ccc3C(F)(F)F)c(=O)c3c2CCC3)c1` [Example 88, 4-(3,5-dimethoxy-phenyl)-2-(5-methyl-2-trifluoromethyl-phenyl)-2,5,6,7-tetrahydro-cyclopenta[d]pyridazin-1-one], for which the half-maximal inhibitory concentration (IC50) is under 100 nM.

For the origin of these results see patent publication EP1953147A1, “HETEROCYCLIC COMPOUND AND MEDICINAL APPLICATION THEREOF” (priority 2005, dated 2007).
